The text below walks through data of article PMC6920703, “Measuring glycolytic flux in single yeast cells with an orthogonal synthetic biosensor” (Molecular Systems Biology, 2019).

By Kd is commonly meant the equilibrium constant for the complex coming apart.

The assay deals with T1, wild-type CggR (Bacillus subtilis, UniProt O32253).
T1 sequence (O32253 1-340): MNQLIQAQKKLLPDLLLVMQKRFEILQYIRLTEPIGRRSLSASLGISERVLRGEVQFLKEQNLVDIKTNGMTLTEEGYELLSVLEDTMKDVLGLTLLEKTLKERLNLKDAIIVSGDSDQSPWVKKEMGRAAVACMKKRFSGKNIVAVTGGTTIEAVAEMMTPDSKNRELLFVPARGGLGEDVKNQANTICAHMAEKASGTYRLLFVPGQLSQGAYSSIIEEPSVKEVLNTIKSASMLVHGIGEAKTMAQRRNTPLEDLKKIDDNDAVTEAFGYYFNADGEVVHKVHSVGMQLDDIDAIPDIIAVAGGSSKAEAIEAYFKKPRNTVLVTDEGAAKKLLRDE
Put plainly: Thermal shift assay of purified CggR with SYPRO Orange and 0-36 mM FBP (20 to 99 °C in 0.5 °C steps, NaCl counter-ion controls), no DNA; KD from fitting Tm data to a simple cooperative binding model in GraphPad. The source says: We generated these CggR mutants with site‐directed mutagenesis, expressed in E. coli, purified, and biochemically characterized them. To this end, we used thermal shift assays to assess protein stability and ligand binding.
Figure 5 Biochemical characterization of CggR and respective mutants • Thermal shift assays were used to determine the melting curves of wild‐type CggR and mutants. Error bars correspond to the standard deviation of at least five replicates. • CggR‐FBP affinity constants (KD's) of the wild type and mutant variants, determined by fitting a simple cooperative binding model to the melting curves data. Error bars indicate the 95% confidence intervals. • Quantification of CggR binding to DNA. The CggR bound to DNA fraction was calculated by dividing the intensity of the protein–DNA complex band by the total DNA. The background‐subtracted total intensities of the CggR–DNA complex and the free‐DNA bands were assessed with ImageJ. Error bars correspond to the standard deviation of three replicate experiments for the mutants and six for the wild type. • Summary of the biochemical characterization of the wild type and mutant CggR variants. […]
The K D of the wild type and mutant CggR variants was calculated by fitting the T m data into a simple cooperative model using the GraphPad software.

`O=P(O)(O)OC[C@H]1OC(O)(COP(=O)(O)O)[C@@H](O)[C@@H]1O` (stereo partly shown) [FBP, fructose-1,6-bisphosphate]: the Kd was 1000 µM.
